From US20260092061A1, “COMPOUNDS FOR TARGETED PROTEIN DEGRADATION” (Amphista Therapeutics Limited, priority 2022, published 2026) come the findings set out here.

Where two headings read alike, the source gives them in different places.

In general, DC50 refers to the concentration giving 50% degradation. As usually defined, the Dmax is the largest share of the target that was removed.

For the assay, the target named is T1, BRD9 (Homo sapiens, UniProt Q9H8M2).
T1 sequence (Q9H8M2 1-597): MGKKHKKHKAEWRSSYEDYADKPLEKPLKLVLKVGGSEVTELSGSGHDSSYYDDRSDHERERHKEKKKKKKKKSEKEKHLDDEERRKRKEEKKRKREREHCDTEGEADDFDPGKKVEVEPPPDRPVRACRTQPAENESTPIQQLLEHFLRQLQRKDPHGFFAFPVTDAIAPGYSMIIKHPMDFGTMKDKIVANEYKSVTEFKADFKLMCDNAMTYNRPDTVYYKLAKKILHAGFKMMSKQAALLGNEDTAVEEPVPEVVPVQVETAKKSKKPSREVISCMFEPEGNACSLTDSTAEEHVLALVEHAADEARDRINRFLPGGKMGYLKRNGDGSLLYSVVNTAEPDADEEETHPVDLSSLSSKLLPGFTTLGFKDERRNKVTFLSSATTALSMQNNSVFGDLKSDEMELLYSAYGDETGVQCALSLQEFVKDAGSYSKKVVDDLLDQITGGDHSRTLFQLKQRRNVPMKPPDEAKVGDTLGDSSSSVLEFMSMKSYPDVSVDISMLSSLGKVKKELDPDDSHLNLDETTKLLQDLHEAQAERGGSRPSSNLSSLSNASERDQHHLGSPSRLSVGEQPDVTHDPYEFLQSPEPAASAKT
In words: Degradation of BRD9 (IF), immunofluorescence in MV4-11 cells, 24 hours (Assay Protocol 2). Details: A suspension of MV4-11 cells (ATCC CRL-9591) was prepared; host or cells: MV4-11. The format is cell-based. The following applies: BRD9 degradation; for DC50: read-out: DC50. In outline: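 MV4-11 cells treated with compound 24 h at 37° C., then fixed, permeabilised and immunostained for BRD9 (anti-BRD9 E4Q3F, Alexa 647 secondary, Hoechst counterstain). High-content imaging quantified nuclear BRD9 signal; % BRD9 remaining normalised to DMSO and 100 nM CFT-8634 controls.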

The mark [1] stands for this setting: MV4-11, Assay protocol 2, read-out: Dmax.

In the case of `COc1cc(-c2cn(C)c(=O)c3[nH]ncc23)cc(OC)c1CN1CCN(Cc2cccc3c2CCN(C(=O)/C(C#N)=C/C(C)(C)C)C3C)CC12CC2` (mixture of isomers) [Compound B158, (E/Z)-2-(5-((4-(2,6-dimethoxy-4-(6-methyl-7-oxo-6,7-dihydro-1H-pyrazolo[3,4-c]pyridin-4-yl)benzyl)-4,7-diazaspiro[2.5]octan-7-yl)methyl)-1-methyl-1,2,3,4-tetrahydroisoquinoline-2-carbonyl)-4,4-dimethylpent-2-enenitrile], the DC50 (Assay protocol 2) was under 0.00125 µM. In addition, under setting [1], the Dmax was over 75%.

As for `COc1cc(-c2cn(C)c(=O)c3[nH]ncc23)cc(OC)c1CN1CCN(Cc2ccc3c(c2)[C@@H](C)N(C(=O)/C(C#N)=C/C(C)(C)C)CC3)C2(CC2)C1` (single isomer, unassigned) [Compound C6, (E/Z)-2-(7-((7-(2,6-dimethoxy-4-(6-methyl-7-oxo-6,7-dihydro-1H-pyrazolo[3,4-c]pyridin-4-yl)benzyl)-4,7-diazaspiro[2.5]octan-4-yl)methyl)-1-methyl-1,2,3,4-tetrahydroisoquinoline-2-carbonyl)-4,4-dimethylpent-2-enenitrile], for the setting “Assay protocol 2”, the 50% degradation concentration (DC50) is under 0.00125 µM. Under setting [1], the Dmax is over 75%.

Take `COc1cc(-c2cn(C)c(=O)c(C)c2C)cc(OC)c1CN1CCN(Cc2cccc3c2CCN(C(=O)/C(C#N)=C/C(C)(C)C)C3C(F)F)C2(CC2)C1` (mixture of isomers) [Compound C13]: the DC50 (Assay protocol 2) is under 0.00125 µM. For the same compound, the Dmax under setting [1] was over 75%.

Regarding `COc1cc(-c2cn(C)c(=O)c(C)c2C)cc(OC)c1CN1CC[C@H](Oc2cccc3c2CCN(C(=O)/C(C#N)=C/C(C)(C)C)C3C)C1` (mixture of isomers) [Compound B133, (E/Z)-2-(5-(((R)-1-(2,6-dimethoxy-4-(1,4,5-trimethyl-6-oxo-1,6-dihydropyridin-3-yl)benzyl)pyrrolidin-3-yl)oxy)-1-methyl-1,2,3,4-tetrahydroisoquinoline-2-carbonyl)-4,4-dimethylpent-2-enenitrile], the DC50 (Assay protocol 2) fell in the range of 0.01 to 0.025 µM. The Dmax under setting [1] was 40 to 70%.

For the compound `COc1cc(-c2cn(C)c(=O)c(C)c2C)cc(OC)c1CN1C[C@@H](C)N(Cc2cccc3c2CCN(C(=O)/C(C#N)=C/C(C)(C)C)C3C)C[C@H]1C` (mixture of isomers) [Compound B115, (E/Z)-2-(5-(((2R,5R)-4-(2,6-dimethoxy-4-(1,4,5-trimethyl-6-oxo-1,6-dihydropyridin-3-yl)benzyl)-2,5-dimethylpiperazin-1-yl)methyl)-1-methyl-1,2,3,4-tetrahydroisoquinoline-2-carbonyl)-4,4-dimethylpent-2-enenitrile], the DC50 (Assay protocol 2) was in the range of 0.00125 to 0.01 µM. In addition, the Dmax under setting [1] was over 75%.

Turning to `COc1cc(-c2cn(C)c(=O)c(C)c2C)ccc1OC1CCN(Cc2cccc3c2CCN(C(=O)/C(C#N)=C/C(C)(C)C)C3C(C)C)CC1` (mixture of isomers) [Compound C32, (E/Z)-2-(1-isopropyl-5-((4-(2-methoxy-4-(1,4,5-trimethyl-6-oxo-1,6-dihydropyridin-3-yl)phenoxy)piperidin-1-yl)methyl)-1,2,3,4-tetrahydroisoquinoline-2-carbonyl)-4,4-dimethylpent-2-enenitrile], the DC50 (Assay protocol 2) was 0.025 to 1 µM. Besides, the Dmax under setting [1] was 70 to 75%.

Turning to `COc1cc(-c2cn(C)c(=O)c(C)c2C)cc(OC)c1CN1CCN(Cc2cccc3c2CCN(C(=O)C(C#N)=Cc2cccc(Br)n2)C3C)C(C)(C)C1` (mixture of isomers) [Compound B99, (E/Z)-3-(6-bromopyridin-2-yl)-2-(5-((4-(2,6-dimethoxy-4-(1,4,5-trimethyl-6-oxo-1,6-dihydropyridin-3-yl)benzyl)-2,2-dimethylpiperazin-1-yl)methyl)-1-methyl-1,2,3,4-tetrahydroisoquinoline-2-carbonyl)acrylonitrile], where the note is “Assay protocol 2”, the Dmax result is “+ (+ = >40% and <70%)”; the DC50 lay in the range of 0.025 to 1 µM.

As to `COc1cc(-c2cn(C)c(=O)c(C)c2C)cc(OC)c1CN1CCN(C(=O)c2cccc3c2CCN(C(=O)/C(C#N)=C/C(C)(C)C)C3C)C2(CC2)C1` (mixture of isomers) [Compound C43, (E/Z)-2-(5-(7-(2,6-dimethoxy-4-(1,4,5-trimethyl-6-oxo-1,6-dihydropyridin-3-yl)benzyl)-4,7-diazaspiro[2.5]octane-4-carbonyl)-1-methyl-1,2,3,4-tetrahydroisoquinoline-2-carbonyl)-4,4-dimethylpent-2-enenitrile], the 50% degradation concentration (DC50) (Assay protocol 2) was in the range of 0.025 to 1 µM. Besides, under setting [1], the Dmax is over 75%.

Turning to `COc1cc(-c2cn(C)c(=O)c(C)c2C)cc(OC)c1CN1CCC(CN(C)c2ccc3c(c2)C(C)N(C(=O)/C(C#N)=C/C(C)(C)C)CC3)CC1` (centres unmarked) [Compound C46], the DC50 (Assay protocol 2) lay within 0.00125 to 0.01 µM. Further, the Dmax under setting [1] was in the range of 40 to 70%.

For the compound `COc1cc(-c2cn(C)c(=O)c3ccsc23)cc(OC)c1CN1CCN(Cc2cccc3c2CCN(C(=O)/C(C#N)=C/c2cccc(Br)n2)C3C)C2(CC2)C1` (mixture of isomers) [Compound B108, (E/Z)-3-(6-bromopyridin-2-yl)-2-(5-((7-(2,6-dimethoxy-4-(5-methyl-4-oxo-4,5-dihydrothieno[3,2-c]pyridin-7-yl)benzyl)-4,7-diazaspiro[2.5]octan-4-yl)methyl)-1-methyl-1,2,3,4-tetrahydroisoquinoline-2-carbonyl)acrylonitrile], the DC50 (Assay protocol 2) is under 0.00125 µM. Moreover, the Dmax under setting [1] is over 75%.

Turning to `COc1cc(-c2cn(C)c(=O)c(C)c2C)cc(OC)c1CN1CCCN(Cc2cccc3c2CCN(C(=O)/C(C#N)=C/C(C)(C)C)[C@@H]3C)CC1` (single isomer, unassigned) [Compound B192, (E/Z)-2-(5-((4-(2,6-dimethoxy-4-(1,4,5-trimethyl-6-oxo-1,6-dihydropyridin-3-yl)benzyl)-1,4-diazepan-1-yl)methyl)-1-methyl-1,2,3,4-tetrahydroisoquinoline-2-carbonyl)-4,4-dimethylpent-2-enenitrile], for the setting “Assay protocol 2”, the DC50 lay in the range of 0.00125 to 0.01 µM. Besides, the Dmax under setting [1] is over 75%.

Take `COc1cc(-c2cn(C)c(=O)c(C)c2C)cc(OC)c1CN1CCN(Cc2cccc3c2CCN(C(=O)/C(C#N)=C/C(C)(C)C)C3C(C)C)[C@@H](C)C1` (mixture of isomers) [Compound C14, (E/Z)-2-(5-(((S)-4-(2,6-dimethoxy-4-(1,4,5-trimethyl-6-oxo-1,6-dihydropyridin-3-yl)benzyl)-2-methylpiperazin-1-yl)methyl)-1-isopropyl-1,2,3,4-tetrahydroisoquinoline-2-carbonyl)-4,4-dimethylpent-2-enenitrile]: the DC50 (Assay protocol 2) was in the range of 0.025 to 1 µM. Moreover, the Dmax under setting [1] is over 75%.

For `COc1cc(-c2cn(C)c(=O)c(C)c2C)cc(OC)c1CN1CCN(Cc2ccc3c(c2)[C@H](C)N(C(=O)/C(C#N)=C/C(C)(C)C)CC3)C2(CC2)C1` (single isomer, unassigned) [Compound C36, (E/Z)-2-(7-((7-(2,6-dimethoxy-4-(1,4,5-trimethyl-6-oxo-1,6-dihydropyridin-3-yl)benzyl)-4,7-diazaspiro[2.5]octan-4-yl)methyl)-1-methyl-1,2,3,4-tetrahydroisoquinoline-2-carbonyl)-4,4-dimethylpent-2-enenitrile], the 50% degradation concentration (DC50) (Assay protocol 2) lay within 0.01 to 0.025 µM. Under setting [1], the Dmax was in the range of 40 to 70%.

With `COc1cc(-c2cn(C)c(=O)c(C)c2C)cc(OC)c1CN1CCN(Cc2ccc3c(c2)C(C)N(C(=O)/C(C#N)=C/C2(C)CCC(F)(F)CC2)CC3)C2(CC2)C1` (single isomer, unassigned) [Compound C38, (E/Z)-3-(4,4-difluoro-1-methylcyclohexyl)-2-(7-((7-(2,6-dimethoxy-4-(1,4,5-trimethyl-6-oxo-1,6-dihydropyridin-3-yl)benzyl)-4,7-diazaspiro[2.5]octan-4-yl)methyl)-1-methyl-1,2,3,4-tetrahydroisoquinoline-2-carbonyl)acrylonitrile], the DC50 (Assay protocol 2) was in the range of 0.00125 to 0.01 µM. Under setting [1], the Dmax was in the range of 70 to 75%.

As for `COc1cc(-c2cn(C)c(=O)c(C)c2C)cc(OC)c1CN1CCN(Cc2cccc3c2CCN(C(=O)/C(C#N)=C/C(C)(C)CF)C3C(C)C)C2(CC2)C1` (mixture of isomers) [Compound C24, (E/Z)-2-(5-((7-(2,6-dimethoxy-4-(1,4,5-trimethyl-6-oxo-1,6-dihydropyridin-3-yl)benzyl)-4,7-diazaspiro[2.5]octan-4-yl)methyl)-1-isopropyl-1,2,3,4-tetrahydroisoquinoline-2-carbonyl)-5-fluoro-4,4-dimethylpent-2-enenitrile], the DC50 (Assay protocol 2) was under 0.00125 µM. For the same compound, the Dmax under setting [1] is over 75%.

Turning to `COc1cc(-c2cn(C)c(=O)c3[nH]ncc23)cc(OC)c1CN1CCN(Cc2cccc3c2CCN(C(=O)/C(C#N)=C/c2cccc(Br)n2)C3C)CC1` (mixture of isomers) [Compound B96, (E/Z)-3-(6-bromopyridin-2-yl)-2-(5-((4-(2,6-dimethoxy-4-(6-methyl-7-oxo-6,7-dihydro-1H-pyrazolo[3,4-c]pyridin-4-yl)benzyl)piperazin-1-yl)methyl)-1-methyl-1,2,3,4-tetrahydroisoquinoline-2-carbonyl)acrylonitrile], the DC50 (Assay protocol 2) fell in the range of 0.00125 to 0.01 µM. In addition, the Dmax under setting [1] lay in the range of 40 to 70%.
